Publication PMC9478491, “Therapeutic effects and mechanisms of N-(9,10-anthraquinone-2-ylcarbonyl) xanthine oxidase inhibitors on hyperuricemia” (Frontiers in Pharmacology, 2022)
Where “and” joins values, the source holds several entries; their conditions need not be identical. Identical values can stand only once. Like-named read-outs stand apart in the source and are kept apart here.

Legend:
HK-2 cells = experiment: Culture supernatant UA level of hyperuricemia HK-2 cells; type: cell-based, human; conditions: allopurinol 100 μmol/L
Procedure: According to the establishment method of HK-2 cells, hyperuricemia model was reported in the literature ([Hou et al., 2019]), and HK-2 cells was cultured in a complete medium in a 5% CO2, 37°C cell incubator. The cells in the logarithmic growth phase were inoculated on a 24-well plate at a concentration of 10^5 cells/ml. The cells were cultured in a 37 °C incubator for 24 h. 24 h later, discard the culture medium, and wash cells by PBS for three times. Add 2.5 mmol/L adenosine solution prepared from the incomplete medium to each well and incubate in the incubator for 24 h. Then 0.005 IU/mg XO solution was added to each well in the 24-well plate, and the supernatant was collected after incubation for 12 h. The absorbance was measured on the microplate reader using the UA kit.
Hk-2 cells were cultured in a 5% CO2 cell incubator at 37 °C in complete medium. The cells in the logarithmic growth phase were inoculated on a 24-well plate at a concentration of 10^5 cells/ml and cultured in a 5% CO2 cell incubator at 37°C for 24 h. After 24 h, the culture medium was discarded and washed with PBS for three times. […] After 24 h, the model and drug administration groups were washed with PBS for three times, and the model and drug administration groups were added with 2.5 mmol/L adenosine solution prepared with incomplete whole medium and incubated in an incubator for 24 h. […]

[1] = system: TNF-α, IL-6, IL-1β, NLRP3; experiment: TNF-α, IL-6, IL-1β, NLRP3 in HK-2 culture supernatant (ELISA); type: cell-based, human; conditions: HK-2 cells, allopurinol 100 μmol/L, p < 0.01
Excerpt: The culture, induction, and administration of hyperuricemia HK-2 cells were the same as described earlier. Finally, the supernatant of the culture medium was collected to detect the levels of inflammatory factors. ELISA kits were used to detect the supernatant TNF-α, IL-6, IL-1β, and NLRP3 levels of the culture medium.

XOD [2] = type: cell-based, mouse; conditions: AML12 cells, allopurinol 100 μmol/L, p < 0.001
XOD [3] = experiment: Western blot, XOD protein in AML12 cells; type: cell-based, mouse; conditions: allopurinol 100 μmol/L, p < 0.01
Procedure: The total protein of HK-2 cells and AML12 cells were extracted with total protein extraction kit, and the concentration was determined by the BCA kit. Electrophoresis, membrane transfer, antibody incubation, and other operations were performed in accordance with the Western blot experiment procedures. The protein bands were quantified by ImageJ software and normalized to individual β-actin expression levels.

[4] = system: potassium oxonate-induced hyperuricemia mice; experiment: Morphology (HE) of renal and liver tissue in hyperuricemia mice; type: in vivo, mouse; conditions: allopurinol 10 mg/kg
Excerpt: The liver and kidney tissues fixed in paraformaldehyde were dehydrated to be transparent. Then put the transparent tissue block into the melted paraffin, and embed it after the paraffin is completely immersed in the tissue block. Fix the embedded wax block on the microtome and cut it into 5 μm thin slices. The thin slice is ironed in hot water, then pasted on the glass slide, and dried. Before staining, paraffin wax in the sections was removed with xylene, then soaked with high to low concentration alcohol, and finally soaked in distilled water for 2 min. The dewaxed and rehydrated slices were stained in hematoxylin solution for several minutes and then washed with running water. Then put the slices into 1% hydrochloric alcohol (5–10 s) and rinse with tap water, after rinsing, place the slices in distilled water. After 2 min, the slices were removed and dehydrated with […]. After dehydration, the slices were stained with alcohol eosin solution for 2–3 min. After dehydration by alcohol, xylene was used to make the slices transparent. Finally, the transparent slices were dripped with gum and sealed with a cover glass.
Potassium oxonate (model drug), NAY (drug to be tested), and allopurinol (positive drug) were dissolved or suspended in double steaming water. […]

AML12 cells = experiment: Culture supernatant UA level of hyperuricemia AML12 cells; type: cell-based, mouse; conditions: allopurinol 100 μmol/L, p < 0.001
Procedure: AML12 cells in logarithmic growth were digested with trypsin, and cell suspension was made by pipette blowing. After counting with a blood counting plate, the cells were diluted to 10^5 cells/mL, and 1 ml of each well was inoculated in a medium dish. The cells were placed in a 5% (V/V) CO2 cell incubator at 37 °C for 24 h. 24 h later, the cell supernatant was discarded, washed with PBS for three times, and the adenosine solution prepared with the current basic medium without fetal bovine serum as the solvent was added. The dosage of adenosine was 1.5 mmol/L, and the cells were placed in the cell culture box for further incubation for 24 h. The culture dish was taken out, 0.005 IU xanthine oxidase (XO) was added to each well, and incubated in the cell incubator for 24 h, and then the hyperuricemia liver cell model was obtained.
AML12 cells were cultured in complete medium at 37 °C and a 5% CO2 cell incubator. Logarithmic growth cells were made into cell suspension with trypsin. The cells were inoculated into 24-well plates at the concentration of 10^5 cells/ml and cultured in a cell incubator at 37°C and 5% CO2 for 24 h. After the cells adhered to the wall, the medium in 24-well plates was discarded and washed with PBS for three times. […] After 24 h, the model and administration groups were washed with PBS for three times. […]

patients = system: patients; design: method as in Madero et al., 2009; Liu et al., 2016; conditions: patients taking allopurinol; ref Madero et al., 2009; Liu et al., 2016; cited from earlier work
[5] = system: potassium oxonate-induced hyperuricemia mice; experiment: UA, CRE and BUN in serum and urine of hyperuricemia mice; type: in vivo, mouse; conditions: allopurinol 10 mg/kg gavage, 7 days
Procedure: Ninety SPF male KM mice (20 ± 2 g) were maintained in a normally controlled breeding room with standard laboratory food and water for 1 week prior to the experiments. The uricase inhibitor potassium oxonate was used to induce hyperuricemia in mice, according to previous reports ([Chen et al., 2019]).
Potassium oxonate (model drug), NAY (drug to be tested), and allopurinol (positive drug) were dissolved or suspended in double steaming water. The drug dose used is expressed in “mg/kg.” The dose given for each dose is converted based on the body surface area conversion method. […] Except the normal control mice, others were orally administered by 250 mg/kg potassium oxonate once daily for seven consecutive days to induce hyperuricemia. […] After 7 days’ treatment, diets were removed from the cages 12 h before the animals were sacrificed. The blood was allowed to clot for approximately 1 h at room temperature and centrifuged at 3,000 rpm for 10 min to obtain serum. Serum was divided into three portions, one to detect biochemical markers such as UA, one to detect inflammatory factors, and the remaining stored at−20°C as a backup. […]
The levels of serum UA, CRE, and BUN were measured by using the method recommended in the purchase kit. The levels of serum TNF-α, IL-6, and NLRP3 were measured by using the method recommended in the ELISA kits.

[6] = Pharmacokinetics in rats (HPLC-MS/MS, WinNonlin); type: in vivo, SD rats
Procedure: The volume of intravenous administration was 1 ml/250 g, and the volume of oral administration was 1 ml/100 g. Whole blood was collected at 2, 5, 10, 20, 30, 60, 120, 240, 360, 480, 720, and 1440 min after intravenous administration. The rats’ blood was transferred to the heparinized test tube. The whole blood was centrifuged at 8,000 rpm for 5 min, and the plasma was separated and stored in a refrigerator at -80°C for testing.

rats = system: rats; design: method as in Izmerov et al., 1982; conditions: ref Izmerov et al., 1982; cited from earlier work
mice = system: mice; design: method as in Izmerov et al., 1982; conditions: ref Izmerov et al., 1982; cited from earlier work
[7] = allopurinol, rats, gavage 50 mg/kg, n = 3
[8] = allopurinol, rats, gavage 50 mg/kg, single animals, 50 mg/kg
[9] = allopurinol, rats, intravenous injection 5 mg/kg, single animals, 5 mg/kg

Oc1ncnc2[nH]ncc12 [allopurinol]
UA levels in hyperuricemia cell model (HK-2 cells): could reduce UA levels
IL-6 level in medium supernatant [1]: could reduce the IL-6 level
TNF-α level in medium supernatant [1]: significantly reduced the TNF-α level
XOD activity vs model group (XOD [2]): effect of the allopurinol group on reducing XOD viability and the level of supernatant UA were obvious
XOD protein expression vs model group (XOD [3]): significantly reduced
liver tissue morphology (HE) [4]: many inflammatory cell infiltrates with a small number of hepatocyte necrosis
renal tissue morphology (HE) [4]: Renal cortical inflammatory cell infiltration and marked tubular luminal expansion
supernatant UA level vs model group (AML12 cells): effect of the allopurinol group on reducing XOD viability and the level of supernatant UA were obvious
patients who can reduce serum UA concentration to the target level (patients): less than 40%
serum UA, CRE and BUN levels vs model group [5]: obviously decreased the aforementioned indexes
AUC(0-t) ([6]; SD, rat, plasma, iv, 5 mg/kg, allopurinol, rats, intravenous injection 5 mg/kg, n = 3, read-out: AUC (0–t), Average): 1540 ng·h/mL
AUC(0-inf) ([6]; SD, rat, plasma, iv, 5 mg/kg, allopurinol, rats, intravenous injection 5 mg/kg, n = 3, read-out: AUC (0–∞), Average): 1590 ng·h/mL
MRT inf ([6]; SD, rat, plasma, iv, 5 mg/kg, allopurinol, rats, intravenous injection 5 mg/kg, n = 3, read-out: MRT (0–∞), Average): 0.27 h
AUC(0-t) ([6]; SD, rat, plasma, iv, 5 mg/kg, allopurinol, rats, intravenous injection 5 mg/kg, single animals, read-out: AUC (0–t), individual rats 1-3): 1600 ng·h/mL
AUC(0-inf) ([6]; SD, rat, plasma, iv, 5 mg/kg, allopurinol, rats, intravenous injection 5 mg/kg, single animals, read-out: AUC (0–∞), individual rats 1-3): 1650 ng·h/mL
MRT inf ([6]; SD, rat, plasma, iv, 5 mg/kg, allopurinol, rats, intravenous injection 5 mg/kg, single animals, read-out: MRT (0–∞), individual rats 1-3): 0.27 h
AUC(0-inf) ([6]; SD, rat, plasma, iv, 5 mg/kg, allopurinol, rats, intravenous injection 5 mg/kg, read-out: AUC0-∞): 1590 ± 139 ng·h/mL
concentration at 2 min ([6]; SD, rat, plasma, iv, 5 mg/kg, read-out: C2min (drug concentration in plasma)): 5280 ± 686 ng/mL
k el ([6]; SD, rat, plasma, iv, 5 mg/kg, read-out: elimination rate constant K (converted)): 0.000964 s⁻¹
bioavailability ([6]; SD, rat, plasma, oral, 50 mg/kg, read-out: F): 158%
AUC(0-t) ([6]; SD, rat, plasma, po, 50 mg/kg, allopurinol, rats, gavage 50 mg/kg, n = 3, read-out: AUC (0–t), Average): 24500 ng·h/mL
AUC(0-inf) ([6]; SD, rat, plasma, po, 50 mg/kg, allopurinol, rats, gavage 50 mg/kg, n = 3, read-out: AUC (0–∞), Average): 25100 ng·h/mL
Cmax ([6]; SD, rat, plasma, po, 50 mg/kg, allopurinol, rats, gavage 50 mg/kg, n = 3, read-out: Cmax, Average): 6610 ng/mL
MRT inf ([6]; SD, rat, plasma, po, 50 mg/kg, allopurinol, rats, gavage 50 mg/kg, n = 3, read-out: MRT (0–∞), Average): 2.36 h
AUC(0-t) ([6]; SD, rat, plasma, po, 50 mg/kg, allopurinol, rats, gavage 50 mg/kg, single animals, read-out: AUC (0–t), individual rats 1-3): 27500 ng·h/mL
AUC(0-inf) ([6]; SD, rat, plasma, po, 50 mg/kg, allopurinol, rats, gavage 50 mg/kg, single animals, read-out: AUC (0–∞), individual rats 1-3): 28700 ng·h/mL
Cmax ([6]; SD, rat, plasma, po, 50 mg/kg, allopurinol, rats, gavage 50 mg/kg, single animals, read-out: Cmax, individual rats 1-3): 6100 ng/mL
MRT inf ([6]; SD, rat, plasma, po, 50 mg/kg, allopurinol, rats, gavage 50 mg/kg, single animals, read-out: MRT (0–∞), individual rats 1-3): 2.88 h
Tmax ([6]; SD, rat, plasma, po, 50 mg/kg, read-out: Tmax, individual rats 1-3): 1 h
bioavailability ([6]; SD, rat, plasma, po, 50 mg/kg, read-out: calculated bioavailability): 158%
Tmax, Average [6, 7]: 1.00 h
V/F, Average [6, 7]: 3.18 L/kg
Tmax, individual rats 1-3 ([6]; allopurinol, rats, gavage 50 mg/kg, single animals): 1.00 h
AUC (0–t), individual rats 1-3 [6, 8]: 19623.63 ng·h/mL and 26462.91 ng·h/mL
AUC (0–∞), individual rats 1-3 [6, 8]: 20029.34 ng·h/mL and 26666.72 ng·h/mL
Cmax, individual rats 1-3 [6, 8]: 5,968.97 ug/L and 7742.83 ug/L
MRT (0–∞), individual rats 1-3 [6, 8]: 1.84 h and 2.35 h
V/F, individual rats 1-3 [6, 8]: 3.19 L/kg and 3.81 L/kg and 2.53 L/kg
V, Average ([6]; allopurinol, rats, intravenous injection 5 mg/kg, n = 3): 0.92 L/kg
AUC (0–t), individual rats 1-3 [6, 9]: 1383.23 ng·h/mL and 1648.60 ng·h/mL
AUC (0–∞), individual rats 1-3 [6, 9]: 1432.09 ng·h/mL and 1687.42 ng·h/mL
MRT (0–∞), individual rats 1-3 [6, 9]: 0.29 h
V, individual rats 1-3 [6, 9]: 0.91 L/kg and 1.05 L/kg and 0.81 L/kg

O=C1c2ccccc2C(=O)c2ccccc21 [AQ, 9,10-anthraquinone]
acute oral toxicity LD50 (rats): > 5,000 mg/kg BW
acute oral toxicity LD50 (mice): > 5,000 mg/kg BW
